Measured values reported in patent US4015974A, “Amido phosphorothiolates” (priority 1972, dated 1977).

Experiments:
Assay type in all cases: in vivo
[1] = tested on: barnyard grass (Echinochloa crus-galli); test: Pre-emergence application, herbicidal effect on barnyard grass (Table 1); set-up: key: 0: not damaged; 5: completely killed; conditions: 20 days after application, score 0-5
Procedure, shortened: (§1)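 Steps: sow seeds individually in pots about 10 cm across; cover with soil; apply test compound as water-diluted wettable powder to the soil; grow in greenhouse; rate herbicidal effect at day 20 on a 0–5 scale (5 = completely killed).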

[2] = tested on: large crabgrass (Digitaria sanguinalis); test: Pre-emergence application, herbicidal effect on large crabgrass (Table 1); set-up: key: 0: not damaged; 5: completely killed; conditions: 20 days after application, score 0-5
Procedure, shortened: as §1

radish = test: Pre-emergence application, herbicidal effect on radish (Table 1); set-up: key: 0: not damaged; 5: completely killed; conditions: 20 days after application, score 0-5
Procedure, shortened: as §1

[3] = tested on: redroot pigweed (Amaranthus retroflexus); test: Pre-emergence application, herbicidal effect on redroot pigweed (Table 1); set-up: key: 0: not damaged; 5: completely killed; conditions: 20 days after application, score 0-5
Procedure, shortened: as §1

[4] = tested on: common purslane (Portulaca oleracea); test: Pre-emergence application, herbicidal effect on common purslane (Table 1); set-up: key: 0: not damaged; 5: completely killed; conditions: 20 days after application, score 0-5
Procedure, shortened: as §1

[5] = tested on: common lambsquarter (Chenopodium album); test: Pre-emergence application, herbicidal effect on common lambsquarter (Table 1); set-up: key: 0: not damaged; 5: completely killed; conditions: 20 days after application, score 0-5
Procedure, shortened: as §1

rice = test: Water application, phytotoxicity on rice (Table 2); set-up: key: 0: no effect; 1: very slightly affected; 2: slightly affected; 3: moderately affected; 4: considerably affected; 5: completely killed; conditions: 25 days, score 0-5
Procedure, shortened: (§2)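 Flooded paddy soil, 3-leaf rice transplants, sown barnyard grass, spontaneous broadleaf weeds; WP formulation, water-lodged soil application; 0–5 visual rating, day 25.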

[6] = tested on: barnyard grass (Echinochloa crus-galli); test: Water application, herbicidal effect on barnyard grass (Table 2); set-up: key: 0: not damaged; 5: completely killed; conditions: 25 days, score 0-5
Procedure, shortened: as §2

[7] = tested on: broad-leaved weeds, e.g., monochoria, false pimpernel and toothcup; test: Water application, herbicidal effect on broad-leaved weeds (Table 2); set-up: key: 0: not damaged; 5: completely killed; conditions: 25 days, score 0-5
Procedure, shortened: as §2

SMILES	Herbicidal effect, barnyard grass ([1]; 10 g./a.)	Herbicidal effect, barnyard grass ([1]; 20 g./a.)	Herbicidal effect, barnyard grass ([1]; 40 g./a.)	Herbicidal effect, large crabgrass ([2]; 10 g./a.)	Herbicidal effect, large crabgrass ([2]; 20 g./a.)	Herbicidal effect, large crabgrass ([2]; 40 g./a.)	Herbicidal effect, radish (radish; 10 g./a.)	Herbicidal effect, radish (radish; 20 g./a.)	Herbicidal effect, radish (radish; 40 g./a.)	Herbicidal effect, redroot pigweed ([3]; 10 g./a.)	Herbicidal effect, redroot pigweed ([3]; 20 g./a.)	Herbicidal effect, redroot pigweed ([3]; 40 g./a.)	Herbicidal effect, common purslane ([4]; 10 g./a.)	Herbicidal effect, common purslane ([4]; 20 g./a.)	Herbicidal effect, common purslane ([4]; 40 g./a.)	Herbicidal effect, common lambsquarter ([5]; 10 g./a.)	Herbicidal effect, common lambsquarter ([5]; 20 g./a.)	Herbicidal effect, common lambsquarter ([5]; 40 g./a.)	Phytotoxicity on rice (rice; 10 g/a)	Phytotoxicity on rice (rice; 20 g/a)	further results
CCCOP(=O)(SCC(=O)N1CCCCC1CC)SC(C)CC (stereo not drawn) [Compound 87]	5	5	5	5	5	5	0	0	0	3	4	5	3	4	5	3	3	5	0	0	Phytotoxicity on rice (rice; 40 g/a): 0; Herbicidal effects, barnyard grass ([6]; 10 g/a): 5; Herbicidal effects, barnyard grass ([6]; 20 g/a): 5; Herbicidal effects, barnyard grass ([6]; 40 g/a): 5; Herbicidal effects, broad-leaved weeds ([7]; 10 g/a): 5; Herbicidal effects, broad-leaved weeds ([7]; 20 g/a): 5; Herbicidal effects, broad-leaved weeds ([7]; 40 g/a): 5
CCCOP(=O)(SCC(=O)N1CCCCC1CC)SCC(C)C (stereo not drawn) [Compound 88]	5	5	5	5	5	5	0	0	0	3	3	4	3	3	4	3	3	4	0	0	Phytotoxicity on rice (rice; 40 g/a): 0; Herbicidal effects, barnyard grass ([6]; 10 g/a): 5; Herbicidal effects, barnyard grass ([6]; 20 g/a): 5; Herbicidal effects, barnyard grass ([6]; 40 g/a): 5; Herbicidal effects, broad-leaved weeds ([7]; 10 g/a): 5; Herbicidal effects, broad-leaved weeds ([7]; 20 g/a): 5; Herbicidal effects, broad-leaved weeds ([7]; 40 g/a): 5
CCOP(=O)(SCC(=O)N1CCC(C)CC1)SC(C)C (stereo not drawn) [Compound 26]	4	5	5	4	5	5	0	0	0	4	4	4	4	4	4	3	4	4	0	0	Phytotoxicity on rice (rice; 40 g/a): 0; Herbicidal effects, barnyard grass ([6]; 10 g/a): 5; Herbicidal effects, barnyard grass ([6]; 20 g/a): 5; Herbicidal effects, barnyard grass ([6]; 40 g/a): 5; Herbicidal effects, broad-leaved weeds ([7]; 10 g/a): 5; Herbicidal effects, broad-leaved weeds ([7]; 20 g/a): 5; Herbicidal effects, broad-leaved weeds ([7]; 40 g/a): 5
